{"source": "patent US5641751A", "about": "“Tumor necrosis factor inhibitors” (Centocor, Inc., priority 1995, dated 1997)", "target": "T1, human TNFα (Homo sapiens, UniProt P01375)", "T1 construct": "purchased Biosource, Camarillo, Calif", "T1 sequence (P01375 77-233 limits assumed)": "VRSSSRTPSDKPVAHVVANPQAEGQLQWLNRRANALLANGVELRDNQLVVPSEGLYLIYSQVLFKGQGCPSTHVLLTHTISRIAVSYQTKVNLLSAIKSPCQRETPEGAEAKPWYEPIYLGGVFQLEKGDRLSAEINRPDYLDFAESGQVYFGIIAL", "assay": "p55 Receptor/IgG fusion protein binding assay (inhibition of TNFα capture by p55-Ig coated plate)", "conditions": "inhibition of binding of TNFα to p55TNFr-IgG chimeric construct", "protocol": "This assay was designed to identify peptides which bind to human TNFα and thereby prevent the capture of the TNFα by a microtiter plate coated with p55-Ig fusion protein. A constant concentration of human TNFα is preincubated with the test peptide and then incubated on the p55-Ig coated microtiter wells. Bound TNFα is detected using a specific antisera and an alkaline phosphatase-conjugated probe.\nA 96-well, U-bottom polyvinylchloride microtiter plate was coated with 50 μl/well of p55-Ig fusion protein at 5 μg/ml in 0.01M sodium phosphate, 0.15M sodium chloride (PBS) by incubation overnight at 4° C. or 2 hours at 37° C. The fusion protein, which consists of a p55 TNF receptor protein portion and an IgG portion, can be produced as disclosed in U.S. application Ser. No. 08/010,406 filed Jan. 29, 1993 which is incorporated herein by reference. The plate was washed three times with 0.05% Tween-20 in PBS, then blocked, by adding 150 μl/well of assay buffer (10 mM N-2-hydroxyethylpiperazine-N'-[…] (HEPES) pH 7.2, containing 0.1% porcine gelatin, 0.1% Tween-80, and 0.01% sodium azide) and continuing incubation for 1 hour at 37° C. or at 4° C. for 1-7 days.\nLyophilized peptides to be tested were weighed in tared 12×75 mm polystyrene tubes and reconstituted to a concentration of 1.2 mM with assay buffer. Each suspension was sonicated in a water bath for 1-5 minutes and vortexed 15-30 seconds to disperse large particles. Serial dilutions of each peptide suspension were prepared using assay buffer in a 96-well polystyrene microtiter plate. Additional wells received Fab fragment of the mouse/human monoclonal anti-human TNFα antibody cA2 (positive control) or assay buffer (negative control). […] The polystyrene dilution plate was then sealed and incubated 1 hour at room temperature on an orbital mixer set at moderate speed.\nFollowing the sample preincubation, blocker was discarded from the p55-Ig coated plate and blotted dry. Aliquots (50 μl) of each peptide or control were transferred into duplicate wells on the p55-Ig coated plate which was then sealed and incubated 1 hour at 37° C. Duplicate wells containing only assay buffer were included as a plate blank. After incubation the p55-Ig plate was washed three times with 0.05% Tween-20 in PBS.\nTo detect TNFα captured by the p55-Ig plate, all wells were incubated in succession with polyclonal rabbit anti-human TNFα (Genzyme, Boston, Mass.; 1:500 in assay buffer, 50 μl/well), biotinylated goat anti-rabbit Ig (H&L) (Vector Laboratories, Burlingame, Calif.; 1 μg/ml in assay buffer, 50 μl/well) and streptavidin-alkaline phosphatase conjugate (Pierce, Rockford, Ill.; 1 μg/ml in assay buffer, 50 μl/well). All incubations were for 1 hour at 37° C. and after each incubation the plate was washed three times with 0.05% Tween-20 in PBS. Fifty microliters of alkaline phosphatase substrate solution (alkaline buffer (Sigma, St. Louis, Mo.) diluted 1:500 in deionized water plus one 5 mg tablet of p-nitrophenyl phosphate (Sigma, St. Louis, Mo.) per 5 ml of diluted buffer) was added to all wells and incubation continued for 20 minutes at room temperature. Color development was stopped by adding to all wells 50 μl of 3N sodium hydroxide. The optical density (OD) at 405 nm was measured on a microtiter plate reader (Molecular Devices Vmax plate reader), with the plate blank wells subtracted as background. The activity of each peptide was then expressed as the percent inhibition of TNFα capture by the p55-Ig plate, relative to the amount of TNFα captured in wells containing only assay buffer (negative control), as follows:\n% inhibition=100-((mean OD peptide/mean OD negative control)×100).\nThe inhibition of binding of TNFα to p55TNFr-IgG chimeric construct was performed as described above using several embodiments of the invention. The peptides were tested to determine the concentration necessary to inhibit TNFα by 50% (IC50) relative to TNFα activity in the absence of the peptide.", "key": {"[1]": {"conditions": "TNFα 25 ng/ml, read-out: IC50 (concentration necessary to inhibit TNFα by 50%)"}, "[2]": {"conditions": "highest value observed, read-out: maximum IC50 observed"}, "[3]": {"conditions": "lowest value observed, read-out: minimum IC50 observed"}}, "note": "Like-named read-outs stand apart in the source and are kept apart here. Ends that are not written are not given here.", "data": [{"substance": "Ac-NINPNNGGTIYNQFKFGKG-NH2 [SEQ ID NO:1]", "values": [{"measurement": "IC50", "setting": "[1]", "value": 20, "unit": "µM"}, {"measurement": "IC50", "setting": "[2]", "value": 91, "unit": "µM"}, {"measurement": "IC50", "setting": "[3]", "value": 8, "unit": "µM"}]}, {"substance": "SEQ ID NO:3: SEQ ID NO:3 in which the carboxy terminal tryptophan is tryptophan amide; comprises a fragment of SEQ ID NO:2 (SAASSVSFMYW-NH2)", "values": [{"measurement": "IC50", "setting": "[1]", "value": 23, "unit": "µM"}, {"measurement": "IC50", "setting": "[2]", "value": 33, "unit": "µM"}, {"measurement": "IC50", "setting": "[3]", "value": 10, "unit": "µM"}]}, {"substance": "Ac-LLIYYVSNRYTGV-NH2 [SEQ ID NO:18]", "values": [{"measurement": "IC50", "setting": "[1]", "value": 307, "unit": "µM"}, {"measurement": "IC50", "setting": "[2]", "value": 829, "unit": "µM"}, {"measurement": "IC50", "setting": "[3]", "value": 29, "unit": "µM"}]}, {"substance": "Ac-SASSSVSFMYW-NH2 [SEQ ID NO:2]", "values": [{"measurement": "IC50", "setting": "[1]", "value": 29, "unit": "µM"}, {"measurement": "IC50", "setting": "[2]", "value": 60, "unit": "µM"}, {"measurement": "IC50", "setting": "[3]", "value": 9, "unit": "µM"}]}, {"substance": "Ac-LLIYYVSNRYTG-NH2 [SEQ ID NO:17]", "values": [{"measurement": "IC50", "setting": "[1]", "value": 155, "unit": "µM"}, {"measurement": "IC50", "setting": "[2]", "value": 210, "unit": "µM"}, {"measurement": "IC50", "setting": "[3]", "value": 51, "unit": "µM"}]}, {"substance": "SASSSVSFMYA-NH2 [SEQ ID NO:4]", "values": [{"measurement": "IC50", "setting": "[1]", "value": 80, "unit": "µM"}, {"measurement": "IC50", "setting": "[2]", "value": 87, "unit": "µM"}, {"measurement": "IC50", "setting": "[3]", "value": 74, "unit": "µM"}]}, {"substance": "Ac-VIWRGGSTDYNAAFMS-NH2 [SEQ ID NO:20]", "values": [{"measurement": "IC50", "setting": "[1]", "value": 86, "unit": "µM"}, {"measurement": "IC50", "setting": "[2]", "value": 150, "unit": "µM"}, {"measurement": "IC50", "setting": "[3]", "value": 37, "unit": "µM"}]}]}
